“Also recorded” adds a separate entry of the source. Where a name gives a salt, the structure may show the parent alone.
What was measured:
[1] = system: p53, Bax, Bcl-xS, Bcl-xL, MnSOD in mitochondria; assay: Immunoblots of pro- and anti-apoptotic proteins in brain mitochondria; assay type: in vivo, mouse
Experimental: Perfused brain homogenates and isolated mitochondrial proteins were size-separated via 12.5% denaturing polyacrylamide gel electrophoresis (SDS-PAGE) and transferred to a nitrocellulose membrane. The membrane was blocked for 1 hour at room temperature in blocking solution consisting of 5% non-fat dried milk, 0.5% Tween-20 and Tris-buffered saline (TBST), pH 7.9. After blocking, the membrane was incubated overnight at 4° C. with primary antibodies against TNF α (Upstate, Lake Placid, N.Y.) and β-actin (Sigma, St. Louis, […].) in homogenate samples, or isolated mitochondria samples for p53 (Ab-11, Oncogene Research, Cambridge, Mass.), Bcl-xS/L (S-18), Bax (P-19) (Santa Cruz Biotechnology, Santa Cruz, Calif.), MnSOD (Upstate, Lake Placid, N.Y.), and glyceraldehyde-3-phosphate dehydrogenase (G-3-PDH, Trevigen, Gaithersburg, Md.) in blocking solution. The membrane was washed twice in TBST and incubated for 1 hour with horseradish peroxidase-conjugated secondary antibodies in blocking solution. After incubation with secondary antibodies, the membrane was washed twice with TBST and once in TBS (TBS without 0.5% Tween-20). Immunoreactivities of the protein bands were detected by enhanced chemiluminescence autoradiography (ECL, Amersham Phamacia Biotech, Arlington Heights, Ill.) as described by the manufacturer.
The final protein concentration was 20-40 mg/ml.

iNOS mRNA = iNOS mRNA expression in brain tissues (RT-PCR); assay type: in vivo, mouse; conditions: wild-type mice, 3 hours after treatment, vs saline controls
Experimental: At 3 hours after treatment, mice were anesthetized and perfused via cardiac puncture with 0.1 M PBS, pH 7.4. The MRNA was isolated using the Micro-FastTrack 2.0 Kit (Invitrogen, Groningen, Netherlands) according to the manufacturer's instructions. The purified MRNA (5 μg) was subjected to reverse-transcription into first strand cDNA in each 20 μL of reaction mixture using the SuperScript III First-Strand Synthesis System for RT-PCR (Invitrogen) according to the manufacturer's instruction. A 25 μL PCR reaction contained 5 μL first strand cDNA, 0.1 U Taq DNA polymerase (Invitrogen), 10 mM 10×PCR buffer, 1.5 mM MgCl2, 2.5 mM dNTP and 10 pmol of each specific primer. PCR samples were subjected to the following conditions: 35 cycles for iNOS (94° C.: 1 minute; 65° C.: 1 minute; 72° C.: 1 minute), 32 cycles for β-actin (94° C.: […]; 55° C.: 30 s; 72° C.: 10 minutes), on a thermocycle (Perkin-Elmer). The primers with the target gene sequences were synthesized by Invitrogen. The primer sequence iNOS was 5′-CTGATGGTCAAGATCCAG-A-GGTCT-3′ (forward) and 5′-[…]-CTCT-3′(reverse), and the primer for β-actin was 5′-TGTTAC-CAACTGGGACGACA-3′ (forward) and 5′-CTGGGTCATCTT-TTCACCGT-3′ (reverse). After amplification, PCR products were subjected to 1% agarose gel electrophoresis, and visualized by ethidium bromide staining. The relative density of bands was analyzed under ultraviolet light (Bio-Rad). Experiments were repeated three times for reproducibility.

[2] = after ADR 20 mg/kg, 3-72 hours, vs saline, hydrochloride
[3] = after ADR, any time point studied

## COc1cccc2c1C(=O)c1c(O)c3c(c(O)c1C2=O)C[C@@](O)(C(=O)CO)C[C@@H]3O[C@H]1C[C@H](N)[C@H](O)[C@H](C)O1 [ADR, Doxorubicin hydrochloride]
[1]; [2]
  Bax level in brain mitochondria: increased with a similar kinetics to that of p53; also recorded: increased at 3 and 6 hours; also recorded: increase in protein density
  p53 level in brain mitochondria: increased in mitochondria early times after ADR treatment (3, 6, 24 hours), then declined at 48, and 72 hours; also recorded: significantly increased at 3, 6, and 24 hours; also recorded: increase in protein density
[1]; [3]
  Bcl-xS level in brain mitochondria: no significant changes
  MnSOD level in brain mitochondria: no significant changes
iNOS mRNA
  iNOS mRNA levels in brain tissues: significantly increased

Reference: patent US20080131432A1, “Method of treating the chemotoxic effects of chemotherapeutic drugs on brain tissue” (University of Kentucky Research Foundation, priority 2005, published 2008)
